Assay results published in ChEMBL document CHEMBL1201862, “PubChem BioAssay data set” (2004).
Active and inactive are the calls of the source.

Experiments:
HEK293 [1] = assay: inhibition of NOD1-driven NF-kB reporter – cell-based, luminescence, uHTS, primary screen (AID 1578); type: functional; details: Homo sapiens
HEK293 [2] = assay: NOD2 signaling inhibitors in MDP-stimulated cells, cell-based, uHTS, luminescence (AID 2001); type: functional; details: Homo sapiens
HEK293 [3] = assay: cells; type: functional, cell-based; details: Homo sapiens
HEK293 [4] = assay: cells; type: functional, cell-based; details: Homo sapiens; remark: listed apart in the source
[5] = target: Nucleotide-binding oligomerization domain-containing protein 2 (Homo sapiens, UniProt Q9HC29); assay: inhibition of NOD2-driven NF-kB reporter – cell-based, luminescence, uHTS, HEK293 (AID 1566); type: functional
[6] = blockade of melanocortin 4 receptor signaling – cell-based, plate reader, cherry pick, counter-screen for LGR2 antagonist project, dose response (AID 743444); type: functional;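 further: transfected HEK 293 cells stimulated with alpha-MSH peptide; potency of inhibitors of the alpha-MSH evoked signal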
HEK293 [7] = assay: cells; type: functional, cell-based; details: Homo sapiens; remark: listed apart in the source
[8] = blockers of bursicon-stimulated LGR2 cAMP reporter – cell-based, HEK293, CRE-luciferase reporter, cherry pick, set 2, dose response (AID 743343); type: functional;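 further: transfected cells were stimulated with diluted bursicon conditioned medium after compound addition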
H4 = assay: Inhibitors of Prion Protein 5' UTR mRNA Measured in Cell-Based System Using Plate Reader - 2078-01_Inhibitor_Dose_DryPowder_Activity. [Related pubchem assays (depositor defined):AID488894]; type: functional; details: Homo sapiens
[9] = target: Glutathione-S-transferase (Schistosoma japonicum, UniProt Q26513); assay: GST-antibody interaction or FRET quenching – biochemical, TR-FRET, artefact control for Vif-APOBEC3G degradation inhibitor project, dose response (AID 1117362); type: functional
ORF 73 = ORF 73 (Human herpesvirus 8, UniProt O40947); assay: KSHV LANA DNA-binding disruption – biochemical, fluorescence polarization, cherry-picked samples, dose response (AID 504725); parameters: species or system Human gammaherpesvirus 8;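 further: fluorescence polarization of a labeled DNA duplex reporting LANA DNA binding; potency is for inhibitors that block LANA binding to the DNA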
[10] = target: Induced myeloid leukemia cell differentiation protein Mcl-1 (Homo sapiens, UniProt Q07820); type: functional
[11] = target: T1, Small ubiquitin-related modifier 1 (Homo sapiens, UniProt P63165); assay: SUMO1 protein interaction blockers, potency – biochemical, fluorescence polarization, uHTS hits, dose response (AID 624382); type: functional; details: read-out: IC50_Mean
[12] = target: T1, Small ubiquitin-related modifier 1; assay: SUMO1 protein-protein binding blockers, potency – biochemical, FRET, dose response (AID 624383); type: functional; details: read-out: IC50_Mean
HeLa = assay: viability loss in HeLa cells – cell-based, 24 h, cherry-picked samples, cytotoxicity control, dose response (AID 504726); type: functional; details: Homo sapiens;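 further: potency for cytotoxicity as loss of luminescence signal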
Genome polyprotein = Genome polyprotein (dengue virus type 2, UniProt P29990); assay: flavivirus cap methylation enzyme inhibition – biochemical, confirmation dose response, primary screen (AID 588689); type: functional
[13] = target: Beta-adrenergic receptor kinase 1 (Homo sapiens, UniProt P25098); assay: aptamer displacement from bead-bound GRK2 – biochemical, cherry pick 1, bead flow cytometry, dose response (AID 504500)
[14] = viability loss in HEK293 cells – cell-based, plate reader, cherry-picked samples, cytotoxicity control, dose response (AID 743446); type: functional
[15] = A549 cell cytotoxicity, dose response, cytotoxicity control, plate reader, cherry-pick, antagonist series (AID 743412); type: functional, cell-based
[16] = toxicity toward HepG2 liver cells – cell-based, plate reader, cherry-pick, antagonist series, cytotoxicity control, dose response (AID 743416); type: functional
[17] = target: Luciferin 4-monooxygenase (Photuris pensylvanica, UniProt Q27757); assay: inhibition of Cell Titer Glo luciferase signal – biochemical, luminescence, cherry-picks, counter-screen for HSF-1 reporter inhibitor project, dose response (AID 588847)
[18] = alpha-synuclein stem-loop luciferase translation blockers – H4 neuroglioma cells, luminescence, confirmation (AID 1988); type: functional, cell-based
[19] = target: FAD-linked sulfhydryl oxidase ALR (Homo sapiens, UniProt P55789); assay: ALR-catalysed DTT oxidation blockers – biochemical, H2O2 detection, luminescence, cherry-pick, dose response (AID 493248)
[20] = target: T2, Corticotropin-releasing factor receptor 2/Corticotropin-releasing factor-binding protein (Homo sapiens, UniProt P24387+Q13324); assay: Dose Response confirmation of uHTS hits for small molecule antagonists of the CRF-binding protein and CRF-R2 receptor complex.; type: functional; details: read-out: IC50_Mean
T2 sequence (Q13324 whole entry): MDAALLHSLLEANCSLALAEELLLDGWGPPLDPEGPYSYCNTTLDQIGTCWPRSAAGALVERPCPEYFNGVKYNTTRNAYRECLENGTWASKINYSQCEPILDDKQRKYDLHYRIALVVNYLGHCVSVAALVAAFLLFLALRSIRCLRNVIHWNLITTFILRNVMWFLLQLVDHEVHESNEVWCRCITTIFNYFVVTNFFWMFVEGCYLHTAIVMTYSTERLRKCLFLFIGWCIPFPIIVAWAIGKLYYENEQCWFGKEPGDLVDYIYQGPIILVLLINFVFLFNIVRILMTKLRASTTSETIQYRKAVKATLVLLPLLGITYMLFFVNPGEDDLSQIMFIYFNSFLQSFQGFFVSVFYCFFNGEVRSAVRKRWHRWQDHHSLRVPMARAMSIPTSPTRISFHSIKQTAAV
T2 sequence (P24387 whole entry): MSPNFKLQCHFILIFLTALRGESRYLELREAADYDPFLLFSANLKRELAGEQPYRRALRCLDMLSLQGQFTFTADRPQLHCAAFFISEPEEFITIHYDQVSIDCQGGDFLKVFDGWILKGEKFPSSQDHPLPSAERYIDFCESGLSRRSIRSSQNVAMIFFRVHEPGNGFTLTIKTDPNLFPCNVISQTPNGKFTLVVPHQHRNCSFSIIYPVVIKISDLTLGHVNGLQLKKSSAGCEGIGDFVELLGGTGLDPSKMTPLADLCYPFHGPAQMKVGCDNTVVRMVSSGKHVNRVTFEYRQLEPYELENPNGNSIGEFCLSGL

Major prion protein = Major prion protein (Homo sapiens, UniProt P04156); type: functional, cell-based
[21] = target: T3, Polyadenylate-binding protein 1 (Homo sapiens, UniProt P11940); assay: MLLE binding blockers, Cy5 peptide tracer – biochemical, fluorescence polarization, Cy5-PAM2 peptide, secondary, miRNA deadenylation inhibitor project, dose response (AID 602260); type: functional; details: read-out: IC50_Mean
[22] = target: Dual specificity tyrosine-phosphorylation-regulated kinase 1A (Rattus norvegicus, UniProt Q63470); type: biochemical, Homo sapiens
[23] = target: T3, Polyadenylate-binding protein 1; assay: MLLE domain peptide-binding blockers, IC50 – biochemical, fluorescence polarization, FITC-PAM2 peptide, dose response (AID 602259); type: functional; details: read-out: IC50_Mean
[24] = target: T2, Corticotropin-releasing factor receptor 2/Corticotropin-releasing factor-binding protein; assay: activators of CRF receptor 2 with binding protein – uHTS hits, confirmation (AID 602473); type: functional; details: read-out: EC50_Mean
[25] = target: T4, Rac GTPase-activating protein 1 (Homo sapiens, UniProt Q9H0H5); assay: blockers of MgcRacGAP-driven Rac1 GTP hydrolysis – biochemical, ADP Hunter fluorescence, primary and confirmatory, confirmation (AID 624330); type: functional
T4 sequence (Q9H0H5 whole entry): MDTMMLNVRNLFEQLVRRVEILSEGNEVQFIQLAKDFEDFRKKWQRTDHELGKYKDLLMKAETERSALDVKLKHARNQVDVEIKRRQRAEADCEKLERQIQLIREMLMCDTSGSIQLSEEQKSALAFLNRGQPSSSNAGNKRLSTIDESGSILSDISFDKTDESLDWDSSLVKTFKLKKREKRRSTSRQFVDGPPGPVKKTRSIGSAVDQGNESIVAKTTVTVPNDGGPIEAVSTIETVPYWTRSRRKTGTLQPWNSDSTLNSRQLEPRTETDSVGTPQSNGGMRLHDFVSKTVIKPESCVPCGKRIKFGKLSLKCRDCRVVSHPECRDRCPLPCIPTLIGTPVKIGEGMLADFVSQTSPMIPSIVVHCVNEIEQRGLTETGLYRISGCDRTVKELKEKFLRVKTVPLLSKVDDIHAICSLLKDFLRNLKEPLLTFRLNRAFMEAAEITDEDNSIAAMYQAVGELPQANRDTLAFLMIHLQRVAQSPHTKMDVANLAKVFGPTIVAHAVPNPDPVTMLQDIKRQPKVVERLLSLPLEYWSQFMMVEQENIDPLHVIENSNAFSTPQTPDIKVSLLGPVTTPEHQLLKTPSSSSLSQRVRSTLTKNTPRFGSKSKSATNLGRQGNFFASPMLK

[26] = target: T5, RNA-binding protein pos-1 (Caenorhabditis elegans, UniProt G5EF15); assay: disruptors of C. elegans POS-1 RNA interaction – biochemical, fluorescence polarization, dose response (AID 1964);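 further: purified POS-1 fused to maltose binding protein made in E. coli; potency of compounds blocking POS-1 binding to fluorescent RNA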
T5 sequence (G5EF15 whole entry): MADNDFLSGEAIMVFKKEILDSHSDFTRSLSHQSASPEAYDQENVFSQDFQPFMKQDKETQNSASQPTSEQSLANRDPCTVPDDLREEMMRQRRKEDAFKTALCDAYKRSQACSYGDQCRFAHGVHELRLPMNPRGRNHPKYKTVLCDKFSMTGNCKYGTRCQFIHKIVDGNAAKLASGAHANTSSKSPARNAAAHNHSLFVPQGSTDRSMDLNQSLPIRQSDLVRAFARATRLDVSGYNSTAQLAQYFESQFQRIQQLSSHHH

[27] = target: T6, Zinc finger protein mex-5 (Caenorhabditis elegans, UniProt Q9XUB2); assay: potency of MEX-5 RNA-binding blockers – biochemical, C. elegans, fluorescence polarization, dose response (AID 1960)
T6 sequence (Q9XUB2 whole entry): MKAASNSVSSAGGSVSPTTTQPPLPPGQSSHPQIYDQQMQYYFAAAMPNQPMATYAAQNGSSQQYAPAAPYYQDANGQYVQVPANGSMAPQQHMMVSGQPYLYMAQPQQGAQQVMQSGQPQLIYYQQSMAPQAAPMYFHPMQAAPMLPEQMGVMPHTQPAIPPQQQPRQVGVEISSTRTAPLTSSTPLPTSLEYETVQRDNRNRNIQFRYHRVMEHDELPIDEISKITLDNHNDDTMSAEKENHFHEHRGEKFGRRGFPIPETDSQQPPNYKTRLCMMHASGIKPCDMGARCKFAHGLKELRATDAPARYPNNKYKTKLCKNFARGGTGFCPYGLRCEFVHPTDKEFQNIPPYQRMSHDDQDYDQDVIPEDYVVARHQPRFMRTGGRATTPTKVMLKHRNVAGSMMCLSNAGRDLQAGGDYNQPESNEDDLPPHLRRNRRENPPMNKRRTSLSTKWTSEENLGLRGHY

Beta-galactosidase = Beta-galactosidase (Escherichia coli, UniProt Q8VNN2); assay: PubChem AID 485352; type: functional
[28] = target: Type-1 angiotensin II receptor (Homo sapiens, UniProt P30556); assay: antagonism of angiotensin II type 1 receptor – cell-based, uHTS hits, selectivity assay for APJ receptor antagonist project, dose response (AID 463214); type: functional;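 further: antagonist potency against angiotensin II stimulated AT1 response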
INS1 = assay: INS-1E mitochondrial potential rescue under cytokines – cell-based, JC-1 fluorescence ratio, dry powder, dose response (AID 488931); type: functional; details: Rattus norvegicus
Cytochrome P450 3A4 = Cytochrome P450 3A4 (Homo sapiens, UniProt P08684); details: Potency;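 further: confirmatory qHTS run detecting inhibitors and substrates of CYP3A4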
[29] = target: Voltage-gated inwardly rectifying potassium channel KCNH2 (Homo sapiens, UniProt Q12809); details: Potency;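 further: confirmatory quantitative high-throughput screen measuring inhibition of hERG channel activity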

COc1cc(NC(=O)c2cccs2)c(C(=O)OCC(=O)c2cc(C)n(-c3ccccc3)c2C)cc1OC
EC50 (HEK293 [1]): > 20 µM (inactive) | IC50 (HEK293 [2]): > 20 µM (inactive) | IC50 (HEK293 [3]): > 20 µM (inactive) | IC50 (HEK293 [4]): 1.19 µM (active) | EC50 [5]: 7.27 µM (active) | AC50 [6]: 3.07 µM (active) | IC50 (HEK293 [7]): > 20 µM (inactive) | AC50 [8]: 9.95 µM (active) | AC50 (H4): 2.17 µM (active)

O=C(O)c1cccc2c1NC(C(=O)O)C1CC(Sc3ccccc3[N+](=O)[O-])C(Cl)C21 (centres undefined)
IC50 [9]: > 100 µM (active) | AC50 (ORF 73): 59.6 µM (active) | IC50 [10]: 2.17 µM (active) | IC50 [11]: > 66.6 µM (inactive) | IC50 [12]: 5.21 µM (active) | AC50 (HeLa): 179 µM (active) | IC50 (Genome polyprotein): 38.9 µM (active) | EC50 [13]: 19.4 µM (inactive)

N#CCCCC#Cc1ccc2c(c1)COc1c3ccccc3nn1-2
AC50 [14]: > 52 µM (inactive) | AC50 [15]: > 52 µM (inactive) | AC50 [16]: > 52 µM (inactive) | AC50 [17]: 1.76 µM (active) | AC50 [6]: 7.77 µM (active) | AC50 [8]: 6.24 µM (active) | EC50 [18]: 10.1 µM (inconclusive)

S=c1[nH]c2ccccc2n2c(=S)[nH]nc12
AC50 [19]: 2.35 µM (active) | IC50 [20]: > 47.1 µM (inactive) | IC50 (Major prion protein): > 1.7 µM (active) | IC50 [21]: > 66 µM (inactive) | AC50 [22]: 8 µM (active) | IC50 [23]: > 66 µM (inactive) | EC50 [24]: > 53 µM (inactive) | IC50 [25]: 56.5 µM (active) | EC50 [26]: 10.3 µM (inconclusive) | EC50 [27]: 6.1 µM (active)

Cc1cc(C(=O)NNc2ccc(C)c(C)c2)no1
EC50 (Beta-galactosidase): > 40 µM (inactive) | IC50 [28]: 8.58 µM (active)

COc1ccc(S(=O)(=O)N(C)C[C@@H]2Oc3c(NC(=O)Nc4c(C)noc4C)cccc3C(=O)N([C@@H](C)CO)C[C@H]2C)cc1
AC50 (INS1): 28 µM (active)

CCOP(=S)(OCC)SCCSCC [DISULFOTON]
AC50 (Cytochrome P450 3A4): 20 µM (inconclusive) | AC50 [29]: 1 µM (inconclusive)
